Results from ChEMBL document CHEMBL1201862, “PubChem BioAssay data set” (2004).
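Dose response: 5 concentrations. Exposure: 48 h. Format: 96-well plates. Endpoint: linear interpolation; highest concentration if not reached. Abbreviation: GI50, concentration required for 50% inhibition of growth.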 Calls of active or inactive are those of the source. Rule as the data show it: active = GI50 up to about 1.1 µM and inactive = higher.

Experiments:
Assay in all cases: inhibition of tumour cell growth, NCI panel, 48 h
A498 = system: A498
PC-3 = system: PC-3
EKVX = system: EKVX
U-251 = system: U-251
HCT-116 = system: HCT-116
HT-29 = system: HT-29
SK-OV-3 = system: SK-OV-3
CAKI-1 = system: CAKI-1
BT-549 = system: BT-549
IGROV-1 = system: IGROV-1
OVCAR-8 = system: OVCAR-8
CCRF-CEM = system: CCRF-CEM
OVCAR-5 = system: OVCAR-5
MDA-MB-435 = system: MDA-MB-435
SK-MEL-28 = system: SK-MEL-28
SN12C = system: SN12C
NCI-H460 = system: NCI-H460
NCI-H23 = system: NCI-H23
UACC-257 = system: UACC-257
OVCAR-3 = system: OVCAR-3

SMILES	GI50 (A498)	GI50 (PC-3)	GI50 (EKVX)	GI50 (U-251)	GI50 (HCT-116)	GI50 (HT-29)	GI50 (SK-OV-3)	GI50 (CAKI-1)	GI50 (BT-549)	GI50 (IGROV-1)	GI50 (OVCAR-8)	GI50 (CCRF-CEM)	GI50 (OVCAR-5)	GI50 (MDA-MB-435)	GI50 (SK-MEL-28)	GI50 (SN12C)	GI50 (NCI-H460)	GI50 (NCI-H23)	GI50 (UACC-257)	GI50 (OVCAR-3)
COc1cc2c3cc1Oc1c(OC)c(OC)cc4c1C(Cc1ccc(O)c(c1)Oc1ccc(cc1)CC3N(C)CC2)N(C)CC4 (configuration not stated)	23.7 µM (inactive)	31.3 µM (inactive)	27.9 µM (inactive)	21.4 µM (inactive)	45.3 µM (inactive)	31.3 µM (inactive)	29.6 µM (inactive)	17.9 µM (inactive)	23.1 µM (inactive)	39.8 µM (inactive)	33.6 µM (inactive)	17.2 µM (inactive)	39.7 µM (inactive)	> 10 µM (inactive)	64.4 µM (inactive)	19.1 µM (inactive)	15.7 µM (inactive)	14.8 µM (inactive)	34.1 µM (inactive)	–
CN(C)Cc1c[nH]c2ncnc(O)c12	> 100 µM (inactive)	56.2 µM (inactive)	98.2 µM (inactive)	51.6 µM (inactive)	22.4 µM (inactive)	28.2 µM (inactive)	> 100 µM (inactive)	19.8 µM (inactive)	> 100 µM (inactive)	35 µM (inactive)	29 µM (inactive)	19.2 µM (inactive)	> 100 µM (inactive)	31.8 µM (inactive)	46.1 µM (inactive)	34.2 µM (inactive)	26.2 µM (inactive)	32.2 µM (inactive)	23 µM (inactive)	> 100 µM (inactive)
COc1ccc(C2=NOC(N)(c3ccc(OC)cc3)C2)cc1 (configuration not stated)	29 µM (inactive)	> 100 µM (inactive)	> 100 µM (inactive)	> 100 µM (inactive)	> 100 µM (inactive)	> 100 µM (inactive)	> 100 µM (inactive)	> 100 µM (inactive)	> 100 µM (inactive)	> 100 µM (inactive)	> 100 µM (inactive)	> 100 µM (inactive)	> 100 µM (inactive)	> 100 µM (inactive)	> 100 µM (inactive)	> 100 µM (inactive)	> 100 µM (inactive)	> 100 µM (inactive)	> 100 µM (inactive)	> 100 µM (inactive)
COc1cc(C)cc2c1c(=O)c1ccccc1n2C	43.3 µM (inactive)	29.2 µM (inactive)	55.3 µM (inactive)	33.9 µM (inactive)	30 µM (inactive)	28.7 µM (inactive)	60 µM (inactive)	54.8 µM (inactive)	37.9 µM (inactive)	42.1 µM (inactive)	40.1 µM (inactive)	24.4 µM (inactive)	34.8 µM (inactive)	35.4 µM (inactive)	42.6 µM (inactive)	37.5 µM (inactive)	32.7 µM (inactive)	40.8 µM (inactive)	40.2 µM (inactive)	37.6 µM (inactive)
O=C1C(/N=N/c2ccc(-c3nc4ccccc4[nH]3)cc2)NC(=S)N1c1ccccc1 (configuration not stated)	> 100 µM (inactive)	98.2 µM (inactive)	> 100 µM (inactive)	33 µM (inactive)	36.8 µM (inactive)	31.8 µM (inactive)	> 100 µM (inactive)	> 100 µM (inactive)	> 100 µM (inactive)	40.2 µM (inactive)	47.2 µM (inactive)	10.7 µM (inactive)	> 100 µM (inactive)	67.3 µM (inactive)	> 100 µM (inactive)	> 100 µM (inactive)	56.9 µM (inactive)	57.4 µM (inactive)	> 100 µM (inactive)	> 100 µM (inactive)
O=C1CSC(c2cccc(Cl)c2)N1c1ccc(-n2c(-c3ccccc3)nc3ccccc3c2=O)cc1 (configuration not stated)	94.8 µM (inactive)	51.3 µM (inactive)	> 100 µM (inactive)	29 µM (inactive)	53 µM (inactive)	97.7 µM (inactive)	88.7 µM (inactive)	45.3 µM (inactive)	9.98 µM (inactive)	59.2 µM (inactive)	79.8 µM (inactive)	40 µM (inactive)	> 100 µM (inactive)	45.8 µM (inactive)	> 100 µM (inactive)	> 100 µM (inactive)	39.1 µM (inactive)	> 100 µM (inactive)	> 100 µM (inactive)	> 100 µM (inactive)
O=C(Nc1ccccc1)c1cc(S(=O)(=O)Nc2n[nH]c(=O)[nH]2)c(SSc2cc(Cl)c(C(=O)Nc3ccccc3)cc2S(=O)(=O)Nc2n[nH]c(=O)[nH]2)cc1Cl	> 100 µM (inactive)	> 100 µM (inactive)	> 100 µM (inactive)	> 100 µM (inactive)	> 100 µM (inactive)	> 100 µM (inactive)	> 100 µM (inactive)	> 100 µM (inactive)	> 100 µM (inactive)	> 100 µM (inactive)	> 100 µM (inactive)	> 100 µM (inactive)	> 100 µM (inactive)	> 100 µM (inactive)	> 100 µM (inactive)	> 100 µM (inactive)	> 100 µM (inactive)	> 100 µM (inactive)	> 100 µM (inactive)	> 100 µM (inactive)
NC1=CN2c3ccccc3N(CC(=O)O)C2C=C1 (configuration not stated)	> 100 µM (inactive)	> 100 µM (inactive)	> 100 µM (inactive)	> 100 µM (inactive)	> 100 µM (inactive)	> 100 µM (inactive)	> 100 µM (inactive)	> 100 µM (inactive)	> 100 µM (inactive)	> 100 µM (inactive)	> 100 µM (inactive)	> 100 µM (inactive)	> 100 µM (inactive)	> 100 µM (inactive)	> 100 µM (inactive)	–	> 100 µM (inactive)	> 100 µM (inactive)	> 100 µM (inactive)	> 100 µM (inactive)
CCN(CC)P(=O)(c1ccc2c(c1)OCCOCCOCCOCCO2)N(CC)CC	> 100 µM (inactive)	> 100 µM (inactive)	> 100 µM (inactive)	–	> 100 µM (inactive)	–	> 100 µM (inactive)	> 100 µM (inactive)	> 100 µM (inactive)	> 100 µM (inactive)	> 100 µM (inactive)	> 100 µM (inactive)	–	> 100 µM (inactive)	> 100 µM (inactive)	> 100 µM (inactive)	> 100 µM (inactive)	> 100 µM (inactive)	–	–
CCc1c[n+]([O-])c(C)cc1[N+](=O)[O-]	> 100 µM (inactive)	> 100 µM (inactive)	29.6 µM (inactive)	99.5 µM (inactive)	26.3 µM (inactive)	82.8 µM (inactive)	> 100 µM (inactive)	40.4 µM (inactive)	> 100 µM (inactive)	> 100 µM (inactive)	46.2 µM (inactive)	> 100 µM (inactive)	> 100 µM (inactive)	57.9 µM (inactive)	> 100 µM (inactive)	53.7 µM (inactive)	20.7 µM (inactive)	74.1 µM (inactive)	> 100 µM (inactive)	> 100 µM (inactive)
CCN(CC)/N=C\c1c2ccccc2cc2ccccc12	41 µM (inactive)	41.1 µM (inactive)	38.4 µM (inactive)	24.5 µM (inactive)	31.8 µM (inactive)	25 µM (inactive)	> 100 µM (inactive)	33 µM (inactive)	84.7 µM (inactive)	39.4 µM (inactive)	61.8 µM (inactive)	31.3 µM (inactive)	37.5 µM (inactive)	34.7 µM (inactive)	11.9 µM (inactive)	48.5 µM (inactive)	30.7 µM (inactive)	58.9 µM (inactive)	27.9 µM (inactive)	–
O=C(O)c1c2c(cc3c1CC1(Cc4ccccc4C1)C3)CCC2	> 100 µM (inactive)	> 100 µM (inactive)	40.6 µM (inactive)	42.6 µM (inactive)	> 10 µM (inactive)	73.8 µM (inactive)	> 100 µM (inactive)	53.2 µM (inactive)	20.8 µM (inactive)	59.4 µM (inactive)	63.1 µM (inactive)	23.3 µM (inactive)	> 100 µM (inactive)	> 100 µM (inactive)	> 100 µM (inactive)	67.6 µM (inactive)	25.9 µM (inactive)	67.5 µM (inactive)	> 100 µM (inactive)	68.1 µM (inactive)
CC(C)C(/C=C/c1ccccc1)=N\NC(=S)NN	> 100 µM (inactive)	53.3 µM (inactive)	38 µM (inactive)	> 67.9 µM (inactive)	31.5 µM (inactive)	98.2 µM (inactive)	> 94.4 µM (inactive)	39.4 µM (inactive)	> 96.2 µM (inactive)	67.8 µM (inactive)	45.2 µM (inactive)	3.93 µM (inactive)	> 100 µM (inactive)	49.5 µM (inactive)	> 100 µM (inactive)	> 100 µM (inactive)	40.6 µM (inactive)	> 77.3 µM (inactive)	> 100 µM (inactive)	21.3 µM (inactive)
CCOC(=O)Oc1cc2c(c(OC)c1OC)-c1ccc(SC)c(=O)cc1C(NC(=O)C(F)(F)F)CC2 (configuration not stated)	0.00133 µM (active)	0.026 µM (active)	0.201 µM (active)	0.00145 µM (active)	< 0.001 µM (active)	< 0.001 µM (active)	< 0.001 µM (active)	0.0147 µM (active)	0.1 µM (active)	0.0022 µM (active)	0.0015 µM (active)	< 0.001 µM (active)	0.1 µM (active)	< 0.001 µM (active)	< 0.001 µM (active)	0.00199 µM (active)	0.00199 µM (active)	0.0209 µM (active)	0.00223 µM (active)	< 0.001 µM (active)
